Experimental data taken from US7754772B2, “Nitrosated nonsteroidal antiinflammatory compounds, compositions and methods of use” (NicOx, S.A., priority 2002, dated 2010).

What was measured:
[1] = tested on: Male Sprague-Dawley rats, carrageenan paw edema; test: rat paw edema test (carrageenan), antiinflammatory activity; type: in vivo
Protocol: The rat paw edema test was used to measure the antiinflammatory activity. The rat paw edema test was performed according to the method of Winter et al, Proc. Soc. […] Male Sprague-Dawley rats (250-275 g) were fasted overnight and dosed by oral gavage with vehicle or suspensions of compound one hour prior to the subplantar injection of 50 μl of 1% suspension of carrageenan. Three hours later, the paw volume was measured and compared with the initial volume measured immediately after carrageenan injection.

[2] = tested on: Male Sprague Dawley rats, gastric hemorrhagic lesion; details: rat, in vivo, po
Protocol: Male Sprague Dawley rats (Charles River Laboratories, Wilmington, Mass.) weighing 230-250 g were used for the experiments. The rats were housed with laboratory chow and water ad libitum prior to the study. The rats were fasted for 24 hours with free access to water and then dosed by oral gavage with vehicle or with test compounds given at a volume of 0.5 mL/100 g. […] Rats were euthanized by CO2 three hours after dosing. The stomachs were dissected along the greater curvature, washed with a directed stream of 0.9% saline and pinned open on a sylgard based petri dish for examination of the hemorrhagic lesion. Gastric lesion score was expressed in mm and calculated by summing the length of each lesion.

[3] = oral gavage one hour prior to subplantar carrageenan, paw volume three hours later, expressed as ratio (Vehicle = 1)

SMILES: COc1ccc2cc(C(C)C(=O)OCCN(CCO[N+](=O)[O-])c3ccc([N+](=O)[O-])cc3)ccc2c1 (centres unmarked) [Example 4, 2-((2-(Nitrooxy)ethyl)4-nitrophenyl)amino)ethyl 2-(6-methoxy-2-naphthyl) propanoate]
- Relative Activity Antiinflammation [1, 3]: 0.92
- Relative Activity Gastric Lesion [2]: 0.04

SMILES: COc1ccc2cc([C@H](C)C(=O)OCC(=O)N3CCC(CCO[N+](=O)[O-])CC3)ccc2c1 [Example 31, 2-(4-(2-(nitrooxy)ethyl)piperidyl)-2-oxoethyl (2S)-2-(6-methoxy(2-naphthyl))propanoate]
- Relative Activity Antiinflammation [1, 3]: 0.61
- Relative Activity Gastric Lesion [2]: 0.06

SMILES: COc1ccc2cc([C@H](C)C(=O)Oc3cccc(C(=O)OCCO[N+](=O)[O-])c3)ccc2c1 [Example 36]
- Relative Activity Antiinflammation ([1]; in vivo, po): 0.65
- Relative Activity Gastric Lesion [2]: 0.57

SMILES: COc1ccc2cc([C@H](C)C(=O)OCC(=O)N3CCC(CO[N+](=O)[O-])CC3)ccc2c1 [Example 19, 2-(4-((Nitrooxy)methyl)piperidyl)-2-oxoethyl (2S)-2-(6-methoxy(2-naphthyl))propanoate]
- Relative Activity Antiinflammation [1, 3]: 0.60
- Relative Activity Gastric Lesion [2]: 0.30

SMILES: COc1ccc2cc([C@H](C)C(=O)Oc3ccccc3C(=O)OCCO[N+](=O)[O-])ccc2c1 [Example 33]
- Relative Activity Antiinflammation [1, 3]: 0.60
- Relative Activity Gastric Lesion [2]: 0.07

SMILES: COc1ccc2cc([C@H](C)C(=O)OC[C@H](CO[N+](=O)[O-])O[N+](=O)[O-])ccc2c1 [Example 5]
- Relative Activity Antiinflammation ([1]; in vivo, po): 0.45
- Relative Activity Gastric Lesion [2]: 0.21

SMILES: COc1ccc2cc([C@H](C)C(=O)OCC(=O)N3CCN(CCO[N+](=O)[O-])CC3)ccc2c1.Cl [Example 37, 2-(4-(2-(Nitrooxy)ethyl)piperazinyl)-2-oxoethyl (2S)-2-(6-methoxy(2-naphthyl))propanoate hydrogen chloride]
- Relative Activity Antiinflammation ([1]; in vivo, po): 0.56
- Relative Activity Gastric Lesion [2]: 0.72
